Source: paper PMC3718800, “Structural and Functional Perturbation of Giardia lamblia Triosephosphate Isomerase by Modification of a Non-Catalytic, Non-Conserved Region” (PLoS ONE, 2013)
Values joined by “and” are separate entries in the source; they are usually repeats but may differ in a detail not shown here. Equal values may be shown once.

Columns and labels:
C222V GlTIM [1] = molecular target: T1, C222V GlTIM (Giardia intestinalis, UniProt P36186, C222V); assay: Competitive inhibition of TIM activity by 2-PG (global fit); format: biochemical, Giardia lamblia
T1 construct: made in house; host or cells: E. coli BL21(DE3)pLys
Protocol: (§1) Glyceraldehyde 3-phosphate (GAP), buffers, salts and all the other analytical grade reagents were acquired from Sigma–Aldrich; α-glycerol-3-phosphate dehydrogenase (α-GDH) was from Roche, crystallization screen kits were obtained from Hampton Research. Restriction enzymes, DNA polymerase and T4 DNA ligase were purchased from New England BioLabs and Invitrogene. Oligonucleotide synthesis and DNA sequencing was performed at the Unidad de Biología Molecular, Instituto de Fisiología Celular, UNAM. Protein concentration was determined by the bicinchoninic acid method or by absorbance at 280 nm for pure GlTIM (ε280 = 26600 M^-1cm^-1). The TIM activity was determined at 25°C by a coupled assay, following the decrease in absorbance at 340 nm. The standard reaction mixture contained 100 mM triethanolamine/10 mM EDTA, pH 7.4 (TE buffer), 1 mM GAP, 0.2 mM NADH, and 0.9 units of α-GDH (20 μg/mL); the reaction was initiated by addition of 5 ng/mL of WT, C222V or C222M GlTIM, 10 ng/mL of C222N, 20 ng/mL of C222D or C222F, and 200 ng/mL of C222K. Kinetic, binding and stability data were analyzed by non-linear regression calculations with Origin software.
(§2) Determination of Km and Vmax was performed by fitting initial velocity data at GAP concentrations ranging from 0.3 to 3 mM to the Michaelis-Menten equation (v = Vmax•S/Km+S) by non-linear regression calculations. The kcat was derived from Vmax by considering a molecular mass for the monomer of 27.7 kDa. The Ki for 2-phosphoglycolate (2-PG) was calculated by global fit of initial velocity curves (GAP from 0.3 to 3 mM) obtained at different fixed concentrations of the inhibitor. Prior to fitting collectively the data to the simple competitive inhibition equation (v = Vmax•S/Km(1+I/Ki)+S), individual data were plotted as double reciprocal plots to confirm competitive inhibition.

C222D GlTIM [2] = molecular target: T2, C222D GlTIM (Giardia intestinalis, UniProt P36186, C222D); assay: as above; format: biochemical, Giardia lamblia; details: 2-PG vs C222D
T2 construct: made in house; host or cells: E. coli BL21(DE3)pLys
Protocol: as §1, §2

C222N GlTIM [3] = molecular target: T3, C222N GlTIM (Giardia intestinalis, UniProt P36186, C222N); assay: as above; format: biochemical, Giardia lamblia
T3 construct: made in house; host or cells: E. coli BL21(DE3)pLys
Protocol: as §1, §2

C222F GlTIM [4] = molecular target: T4, C222F GlTIM (Giardia intestinalis, UniProt P36186, C222F); assay: as above; format: biochemical, Giardia lamblia; details: 2-PG vs C222F
T4 construct: made in house; host or cells: E. coli BL21(DE3)pLys
Protocol: as §1, §2

C222K GlTIM [5] = molecular target: T5, C222K GlTIM (Giardia intestinalis, UniProt P36186, C222K); assay: as above; format: biochemical, Giardia lamblia; details: highest concentrations of 2-PG that could be assayed
T5 construct: made in house; host or cells: E. coli BL21(DE3)pLys
Protocol: as §1, §2

WT GlTIM [6] = molecular target: T6, WT GlTIM (Giardia intestinalis, UniProt P36186); assay: as above; format: biochemical, Giardia lamblia; details: 2-PG vs WT GlTIM
T6 construct: made in house; host or cells: E. coli BL21(DE3)pLys
Protocol: as §1, §2

C222M GlTIM [7] = molecular target: T7, C222M GlTIM (Giardia intestinalis, UniProt P36186, C222M); assay: as above; format: biochemical, Giardia lamblia
T7 construct: made in house; host or cells: E. coli BL21(DE3)pLys
Protocol: as §1, §2

C222V GlTIM [8] = molecular target: T1, C222V GlTIM; assay: Binding of 2-PG by change in intrinsic fluorescence; design: species or system Giardia lamblia
Protocol: (§3) The change in the intrinsic fluorescence of GlTIM in response to the addition of the transition state analog 2-PG was used to determine the affinity of the enzyme for this ligand, as previously reported. Intrinsic fluorescence spectra were collected before and after each addition of 1 or 2 μL aliquots of a 3 or 30 mM stock solution of 2-PG. The final volume added to the fluorescence cell was always less than 5% of the total volume; there was no effect on the absorbance of the protein solution at 280 nm at the highest 2-PG concentration assayed. In all cases, the spectra of samples without protein were subtracted from those that contained the enzyme. For each mutant, the maximal fluorescence intensity at 332 nm, for every 2-PG concentration, was plotted and fitted to y = (α/2Et)(Et+x+Kd) - √ (Et+x+Kd)^2– (4xEt), where y = 1 - (Fi/F) (Fi, initial fluorescence; F, fluorescence intensity at each 2-PG concentration); α is the maximal fluorescence change attained at saturating concentration of the ligand, Et represents the concentration of binding sites, Kd is the equilibrium dissociation constant and x is the concentration of 2-PG [21], [23].

C222D GlTIM [9] = molecular target: T2, C222D GlTIM; assay: as above; design: species or system Giardia lamblia
Protocol: as §3

C222N GlTIM [10] = molecular target: T3, C222N GlTIM; assay: as above; design: species or system Giardia lamblia
Protocol: as §3

C222F GlTIM [11] = molecular target: T4, C222F GlTIM; assay: as above; design: species or system Giardia lamblia
Protocol: as §3

C222K GlTIM [12] = molecular target: T5, C222K GlTIM; assay: as above; design: species or system Giardia lamblia
Protocol: as §3

WT GlTIM [13] = molecular target: T6, WT GlTIM; assay: as above; design: species or system Giardia lamblia; details: 2-PG vs WT GlTIM, fluorescence at 332 nm
Protocol: as §3

C222M GlTIM [14] = molecular target: T7, C222M GlTIM; assay: as above; design: species or system Giardia lamblia
Protocol: as §3

GlTIM = details: cited from earlier work
[15] = tested on: yeast TIM, tyrosine by phenylalanine in the YGGS motif; design: method as in PMID 1390632; details: mutant vs wild type yeast TIM; cited from earlier work
[16] = tested on: yeast TIM, serine replaced by alanine in the YGGS motif; design: method as in PMID 1390632; details: mutant vs wild type yeast TIM; cited from earlier work

T1 sequence (P36186 whole entry C222V): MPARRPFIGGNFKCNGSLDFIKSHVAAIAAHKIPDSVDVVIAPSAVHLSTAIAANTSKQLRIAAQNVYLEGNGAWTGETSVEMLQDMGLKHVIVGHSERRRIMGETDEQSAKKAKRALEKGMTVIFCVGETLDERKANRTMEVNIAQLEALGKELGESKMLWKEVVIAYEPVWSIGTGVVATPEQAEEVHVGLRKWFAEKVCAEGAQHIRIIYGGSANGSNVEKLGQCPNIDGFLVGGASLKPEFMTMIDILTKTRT
T3 sequence (P36186 whole entry C222N): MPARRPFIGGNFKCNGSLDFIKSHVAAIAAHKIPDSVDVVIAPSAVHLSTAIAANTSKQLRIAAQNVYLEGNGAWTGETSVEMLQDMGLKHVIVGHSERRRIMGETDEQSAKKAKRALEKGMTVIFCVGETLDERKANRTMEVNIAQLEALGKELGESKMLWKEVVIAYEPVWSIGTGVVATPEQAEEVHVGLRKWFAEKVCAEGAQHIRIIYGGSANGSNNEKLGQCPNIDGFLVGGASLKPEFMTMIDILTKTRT
T7 sequence (P36186 whole entry C222M): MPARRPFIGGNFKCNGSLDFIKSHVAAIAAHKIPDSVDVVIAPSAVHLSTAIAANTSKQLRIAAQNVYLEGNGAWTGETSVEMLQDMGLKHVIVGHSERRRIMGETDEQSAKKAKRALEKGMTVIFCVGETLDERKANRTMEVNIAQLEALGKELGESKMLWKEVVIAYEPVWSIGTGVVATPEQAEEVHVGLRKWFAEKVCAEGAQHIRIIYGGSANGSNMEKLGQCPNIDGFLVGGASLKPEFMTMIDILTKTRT
T4 sequence (P36186 whole entry C222F): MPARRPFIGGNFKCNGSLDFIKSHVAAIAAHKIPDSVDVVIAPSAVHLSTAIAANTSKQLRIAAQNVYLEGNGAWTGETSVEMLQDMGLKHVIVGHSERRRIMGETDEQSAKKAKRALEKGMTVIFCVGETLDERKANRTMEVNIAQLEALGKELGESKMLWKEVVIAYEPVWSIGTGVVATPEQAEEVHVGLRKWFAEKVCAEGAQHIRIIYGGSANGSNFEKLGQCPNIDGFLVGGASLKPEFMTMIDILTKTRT
T6 sequence (P36186 whole entry): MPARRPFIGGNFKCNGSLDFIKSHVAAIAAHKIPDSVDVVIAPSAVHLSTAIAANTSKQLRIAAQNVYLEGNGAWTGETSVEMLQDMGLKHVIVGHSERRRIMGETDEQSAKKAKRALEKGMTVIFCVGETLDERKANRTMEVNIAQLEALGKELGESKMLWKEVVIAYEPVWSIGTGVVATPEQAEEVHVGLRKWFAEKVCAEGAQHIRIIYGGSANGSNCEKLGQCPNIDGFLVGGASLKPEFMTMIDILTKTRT
T2 sequence (P36186 whole entry C222D): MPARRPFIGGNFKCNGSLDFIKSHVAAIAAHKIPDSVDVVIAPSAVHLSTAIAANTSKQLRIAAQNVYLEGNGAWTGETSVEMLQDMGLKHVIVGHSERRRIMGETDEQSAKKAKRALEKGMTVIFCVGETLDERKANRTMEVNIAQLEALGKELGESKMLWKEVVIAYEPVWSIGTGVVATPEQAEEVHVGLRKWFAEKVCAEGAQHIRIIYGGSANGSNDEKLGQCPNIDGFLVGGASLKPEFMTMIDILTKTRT
T5 sequence (P36186 whole entry C222K): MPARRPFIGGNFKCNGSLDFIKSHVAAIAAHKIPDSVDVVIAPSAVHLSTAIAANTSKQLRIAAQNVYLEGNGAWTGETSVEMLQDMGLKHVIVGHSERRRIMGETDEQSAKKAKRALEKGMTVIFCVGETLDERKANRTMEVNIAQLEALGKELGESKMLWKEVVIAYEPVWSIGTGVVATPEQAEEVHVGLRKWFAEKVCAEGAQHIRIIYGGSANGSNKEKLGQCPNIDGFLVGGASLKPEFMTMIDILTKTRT

SMILES: O=C(O)COP(=O)(O)O [2-PG, 2-phosphoglycolate]
- Ki (C222V GlTIM [1]; 2-PG vs C222V, competitive): 98 ± 10 µM
- Ki MUT/Ki WT ratio (C222V GlTIM [1]; C222V vs WT): 1.13
- Ki (C222D GlTIM [2]): 1.48 ± 0.168 mM
- Ki (C222N GlTIM [3]; 2-PG vs C222N, competitive): 560 ± 59 µM
- Ki MUT/Ki WT ratio (C222N GlTIM [3]; C222N vs WT): 6.4 and 6.44
- Ki (C222F GlTIM [4]): 7.28 ± 2.01 mM
- inhibition by 2-PG (C222K GlTIM [5]): only minimal inhibition was observed
- Ki (WT GlTIM [6]): 87 ± 15 µM
- Ki (C222M GlTIM [7]; 2-PG vs C222M, competitive): 325 ± 50 µM
- Ki MUT/Ki WT ratio (C222M GlTIM [7]; C222M vs WT): 3.7 and 3.74
- Kd (C222V GlTIM [8]; 2-PG vs C222V, fluorescence at 332 nm): 57.4 ± 7.1 µM
- Kd MUT/Kd WT ratio (C222V GlTIM [8]; C222V vs WT): 2.17
- changes in fluorescence induced by 2-PG (C222D GlTIM [9]): minimal
- Kd (C222N GlTIM [10]; 2-PG vs C222N, fluorescence at 332 nm): 113 ± 41.7 µM
- Kd MUT/Kd WT ratio (C222N GlTIM [10]; C222N vs WT): 4.29
- changes in fluorescence induced by 2-PG (C222F GlTIM [11]): minimal
- changes in fluorescence induced by 2-PG (C222K GlTIM [12]): minimal
- Kd (WT GlTIM [13]): 26.4 ± 2.6 µM
- Kd (C222M GlTIM [14]; 2-PG vs C222M, fluorescence at 332 nm): 79.4 ± 8.5 µM
- Kd MUT/Kd WT ratio (C222M GlTIM [14]; C222M vs WT): 3.01

SMILES: O=C(O)c1cc(SSc2ccc([N+](=O)[O-])c(C(=O)O)c2)ccc1[N+](=O)[O-] [DTNB, 5,5′-dithio-bis (2-nitrobenzoic acid)]
- catalytic activity of GlTIM after derivatization of C222 (GlTIM): completely abolished
- inactivation of GlTIM (GlTIM): total inactivation

SMILES: CSS(C)(=O)=O [MMTS, methylmethane thiosulfonate]
- catalytic activity of GlTIM after derivatization of C222 (GlTIM): reduced the catalytic activity of GlTIM by half
- decrease of the kcat/Km ratio after modification of C222 (GlTIM): three-fold decrease

SMILES: O=C(COP(=O)(O)O)NO [PGH, phosphoglycolohydroxamate]
- increase in the Kd [15]: 200 fold
- change of affinity [16]: 5 fold
